How the values were obtained:
[1] = tested on: bleomycin-induced pulmonary fibrosis; assay: bleomycin-induced pulmonary fibrosis study in mice, lung histology (Masson's trichrome, Ashcroft grading); type: in vivo; conditions: for lower fibrosis (histology score) than mice treated with the dosing vehicle / statistical significance of the fibrosis decrease vs dosing vehicle: C57BL/6 male mice, bleomycin OA day 0, 60 mg/kg IP BID days 7 through 20; for statistical significance of the fibrosis decrease vs dosing vehicle: SPSS
Description: FIG. 2. Figure is a chart providing histology scores for pulmonary tissue from mice treated with bleomycin (a well characterized lung toxin) and either dosing vehicle, uridine, or TK-112690. Thirty-three C57BL/6 male mice, 10-14 weeks old at study initiation, were acclimatized for least 3 days. The mouse has been selected as is referenced in the literature as a representative species of choice for this experimental animal model. During acclimation and throughout the entire study duration, animals were housed within a limited access rodent facility and kept in groups of a maximum of 4 mice per cage. Mice were housed in polypropylene cages with solid bottoms and wood shavings or corn cobb as bedding material. Animals were provided ad libitum with a commercial rodent diet and had free access to drinking water that is supplied to each cage via polyethylene bottles. The automatically controlled environmental conditions was set to maintain temperature at 20-26° C. with a relative humidity (RH) of 30-70%, a 12:12 hour light: dark cycle, and 10-15 air changes/hour in the study room. Animals were given a unique animal identification tail mark as a means of identification. This number also appeared on a cage card, which was visible on the front of each cage. The cage card also contained the study and group numbers, route of administration, gender, study director, and arrival date.
Animals were randomly assigned to cages upon arrival. Animals were assigned to treatment groups prior to treatment initiation. At study termination, surviving animals were weighed prior to euthanasia. Euthanasia was performed via anesthesia overdose and exsanguination.
The Table below lists the experimental group(s) comprising the study.
Disease Induction. 75 uL of Bleomycin (section 4.5.) was administered on day 0 via oropharyngeal aspiration (OA). The mice were anesthetized via isoflurane/oxygen and suspended by their cranial incisors on a thin wire from an angled stand. The tongue was gently held from the mouth using blunt forceps to visualize the base of the tongue and the pharynx. Bleomycin/saline suspension was pipetted onto posterior pharynx. Nostrils were held gently closed, Respiration was monitored to ensure the suspension is fully aspirated.
Treatment. Groups 3 and 4 were treated via intraperitoneal (IP) injection at a dosing volume of 10 ml/kg twice daily, 6-8 hours between doses, from days 7 through 20.
Observations and Examinations. Clinical signs, humane endpoints, and palliative care were monitored, as follows: changes in skin, fur, eyes, mucus membranes, occurrence of secretions and excretions, autonomic activity, gait, posture, response to handling, abnormal behavior, tremors, convulsions, sleep and coma, labored breathing, and adventitious lung sounds.
The bleomycin administration induced a severe pulmonary inflammation resulting in lethargy, dehydration, and death of diseased animals. Animals in all diseased groups were given fresh diet gel daily beginning on Day 7 and through the remainder of the study. Body weight measurements were performed 3× weekly starting on Day 0 and throughout the rest of the study.
Termination: BALF and tissue collection. Animals were euthanized via isoflurane overdose. Following euthanasia an angiocatheter was inserted into the trachea. […]
Histology. […] Disease severity and collagen levels were assessed by the Ashcroft fibrosis grading system.
The resulting data were analyzed by SPSS, version 20.

[2] = tested on: plasma uridine; assay: plasma uridine vs plasma Compound 1 concentration after continuous sc osmotic-pump infusion to mice; type: in vivo; conditions: BDF-1 male mice, constant-rate sc infusion 667, 833 or 3000 mg/kg/day
Protocol: Because uridine is cleared so rapidly, with an elimination half-life (t1/2) only a few minutes,^13 and the elimination t1/2 of Compound 1 in mice is only 1-2 hours, it is very challenging to measure uridine concentrations elevations post discrete doses of Compound I, such as used for ip dosing. For this reason, continuous infusion of Compound 1 (TK-112690) to BDF-1 t mice was administered via sc implanted osmotic pumps, and the uridine plasma concentration was measured. Solutions of Compound 1 were prepared at a concentration of 500 mg/mL in sterile PBS. Osmotic pumps (ALZET® micro-osmotic pump 2001D and 1003D, Alza Co) were loaded with 200 μL. (2001D osmotic pump) and/or 100 μL (1003D osmotic pump) of Compound 1 solution.
BDF-1 male mice (n=6) were treated with a constant-rate infusion of 667, 833 or 3000 mg/kg/day doses of Compound 1 delivered via subcutaneously implanted osmotic pumps. Animals were anesthetized with 100 mg/kg ketamine prior to pump implantation. Surgical scissors were used to make an approximately 1 cm incision on the dorsal surface near the shoulder blade of animals. A hemostat was used to carve out a subcutaneous tunnel toward the anterior end of animal. Osmotic pumps were placed inside the subcutaneous tunnel. Incision was sealed with wound clips.
Blood collections were performed on animals anesthetized with ketamine (ip 100 mg/kg). Blood samples from animals treated with a constant-rate infusion of TK-112690 were collected at 72 hours for 667 mg/kg/day and 833 mg/kg/day, and 24 hours for 3000 mg/kg/day after pump implantation. Whole blood (˜0.8 mL) was drawn through the retro-orbital sinus using a heparin coated micro-hematocrit tubes and collected into EDTA microtainer tubes. Blood samples were transferred into fresh 1.5 mL microcentrifuge tubes and centrifuged for 10 minutes at 14,000×g using an Eppendorf Minispin Plus stored in a 4° C. refrigerator. Exactly 0.4 mL of plasma was transferred into fresh microcentrifuge tubes containing 2 μL of 10 mM 5-FU and vortexed at highest setting for approximately 5 seconds. […]

[3] = elimination half-life of Compound 1 in mice; conditions: mouse, in vivo, read-out: elimination t1/2
[4] = tested on: hepatic fibrosis; assay: animal model of hepatic fibrosis; type: in vivo; conditions: summary statement
[5] = side effects of TK-112690
[6] = tested on: chemotherapy-induced mucositis; assay: mitigation of chemotherapy-induced mucositis; conditions: in vivo
[7] = tested on: UPase; conditions: cited from earlier work
[8] = in vivo; cited from earlier work

half-life [3]	Compound	lower fibrosis (histology score) than mice treated with the dosing vehicle [1]	statistical significance of the fibrosis decrease vs dosing vehicle [1]	protection in bleomycin-induced animal model of pulmonary fibrosis ([1]; summary statement)	effect on plasma uridine [2]	intercept of regression line, plasma uridine concentration vs plasma Compound 1 concentration [2]	slope of regression line, plasma uridine concentration vs plasma Compound 1 concentration [2]	protection in animal model of hepatic fibrosis [4]	side effects [5]	efficacy as an agent to mitigate chemotherapy-induced mucositis [6]	UPase inhibitor [7]	elimination half-life (t1/2) [8]
1 to 2 h	Cc1cn2c(nc1=O)O[C@H]1[C@H](O)[C@@H](CO)O[C@H]12 [TK-112690]	30%	statistically significant	protects	elevate plasma uridine in a linear fashion	0.051	0.010	protects	no known side effects	proven efficacy	authentic UPase inhibitor	–
–	O=c1ccn([C@@H]2O[C@H](CO)[C@@H](O)[C@H]2O)c(=O)[nH]1 [uridine]	7%	not statistically significant	–	–	–	–	–	–	–	–	a few minutes
